Data on one compound can be found in patent US11028315B2, “Zwitterionic surfactants suitable for enhanced oil recovery” (RHODIA OPERATIONS, priority 2016, dated 2021).

What all share (format): physicochemical
The nature of data set [1]: Phase behavior: optimal wt. % of co-surfactant leading to Will phase behavior in presence of crude oil. The protocol:
(§1) 2.1 In the following examples, the performances of surfactants formulations containing the betaine of example 1.3.1 in a brine solution at 50 g/L NaCl were compared.
(§2) The total surfactant concentration was set at 8 g/L and the formulation variable was the wt. % of the more hydrophilic zwitterionic surfactant (considered as co-surfactant) in the surfactant blend.
(§3) The wt. % of the more hydrophilic zwitterionic leading to a Will phase behavior (optimal wt %. of co-surfactant), was determined in presence of crude oil at 40° C. and reported in Table 1. The solubility of surfactant blends was also analyzed.

Data set [2] can be described thus: Interfacial tension calculated from solubility ratios at the equilibrium phase behavior. The protocol:
as §3

Data set [3] is described as follows: Solubility of surfactant blends (absorbance). As for the experimental part:
as §1, §2, §3
2.2. In terms of interfacial tension, all the blends studied led to ultra-low values (<10^−2 mN/m). On the other hand, only the hydrophilic amido betaine derived from a branched C12 acid (ADBB12) allows obtaining a homogeneous but opalescent water solution (absorbance of 0.46) at the optimal formulation (71 wt. %).

Data set [4] can be described thus: Interfacial tension with crude oil by spinning drop methods. As to conditions: mixture of ADBB12 and the betaine from C23 ketones derived diamine at the optimal wt. %. The protocol:
All the linear alkyl betaines, solutions separate in two phases or forms really turbid solutions (0.86 absorbance). Interfacial tension with crude oil of the mixture ADBB12 and the betaine from C23 ketones derived diamine at the optimal wt. % was evaluated by spinning drop methods. The ultra-low interfacial tension was confirmed (=10^−3 mN/m).

Values joined by “and” are separate entries in the source; they are usually repeats but may differ in a detail not shown here. Identical values can stand only once.

As to `CCCCCCC(CCCC)C(=O)NCCC[N+](C)(C)CC(=O)[O-]` (stereo not shown) [ADBB12], the Optimal % co-surfactant in data set [1] (blend with betaine of example 1.3.1, brine 50 g/L NaCl, total surfactant 8 g/L, crude oil, 40° C., wt. % of co-surfactant in the blend) is on record as 71%; in data set [1] (blend with sulfobetaine from C23 ketone derived diamine, same conditions as the betaines (50 g/L NaCl, 8 g/L, crude oil, 40° C.)), 64%. Besides, the “γw (interfacial tension)” value in data set [2] (blend with betaine of example 1.3.1 at optimal wt. %, brine 50 g/L NaCl, 8 g/L, crude oil, 40° C.) is listed as 3,4 mN/m · 10^3; in data set [2] (blend with sulfobetaine from C23 ketone derived diamine at optimal wt. %) it was 3.3 mN/m · 10^3. Further, the Absorbance in data set [3] (blend with betaine of example 1.3.1 at optimal wt. % co-surfactant, brine 50 g/L NaCl, total surfactant 8 g/L) is 0.46 and 0.45; in data set [3] (blend with sulfobetaine from C23 ketone derived diamine at optimal wt. % co-surfactant), 0.84. Moreover, the “Interfacial tension with crude oil” value in data set [4] is listed as 10^−3 mN/m.
